# Laboratory results as given in patent publication US20140106387A1, “METHOD FOR CONTROLLING NAD(P)/NAD(P)H RATIO BY OXIDOREDUCTASE” (MD BIOALPHA CO., LTD., priority 2006, published 2014).
# How the values were obtained:
# [1] = test system: AMPK, ACC; assay: AMPK kinase / ACC activity in HepG2 cells; type: cell-based, human
# [2] = glucose tolerance and insulin sensitivity in OLETF rats; type: in vivo, rat; conditions: Days 3 and 21 after treatment
# Protocol: Glucose tolerance test (GTT) was carried out for 12 h-fasted mice by a known method. As described above, 12 h-fasted mice received an insulin stimulation test
# FIG. 45 is a graph showing glucose tolerance and insulin sensitivity measured in vehicle-treated ° LEIF rats and βL-treated OLETF rats. Glucose and insulin were i.p. and i.v. injected, respectively, and the blood glucose level was measured.
# [3] = body weight and dietary intake of leptin receptor-deficient (ob/ob) mice; type: in vivo, mouse
# Protocol: All experimental animal procedures were performed according to a guideline of Institutional Animal Care and Use Committee, Chungnam National University School of Medicine. OLETF rats were purchased from Otsuka Research Institute. Male ob/ob and C57BL/6 mice were purchased from Jackson Laboratory. Animals were housed in a breeding room maintained at a constant temperature of […] and a 12 h/12 h light/dark (L/D) cycle. 4-week-old C57BL/6 male mice were fed ad libitum high fat diet (HFD, 24% (w/w) and 45% calories as fat, Research Diets Inc., New Brunswick, N.J. 08901, US) for 7 weeks. Mouse groups were divided into an untreated group, a vehicle-treated group (calcium silicate), a pair-fed group and a candidate compound-treated group (calcium silicate-coated […] nanoparticles). Body weight and dietary intake of animals were daily measured. Upon completion of experiments, some mice of each group were anesthetized and received MRI examinations. The remaining mice of the groups were anatomized and tissue weight thereof was measured. Epidydimal fat, liver, soleus muscle and extensor digitorum longus (EDL) were prepared, and immunohistochemical, oil-red 0 and pH-sensitive ATPase staining were performed for analysis.
# FIGS. 46 and 47 show changes in dietary intake/body weight and changes in body weight for 56 days, according to daily administration of pyrano-1,2-naphthoquinone into leptin receptor-deficient (ob/ob) mice at a dose of 200 mg/kg via an oral route.
# This Example was intended to examine effects of varying in vivo NAD(P)^+/NAD(P)H ratio by arbitrary external supply of NAD(P)^+, a method capable of elevating the NAD(P)^+/NAD(P)H ratio in vivo. 100 mg/kg of NAD^+ was administered daily to leptin receptor-deficient (ob/ob) mice via an intraperitoneal (i.p.) route. A control mice group was given i.p. administration of physiological saline at the same dose. Changes in dietary intake/body weight (A) and changes in body weight (B) were measured for 30 days.
# 200 mg/kg of DMF was daily administered to leptin receptor-deficient (ob/ob) mice via an oral route. A control group received daily i.p. administration of physiological saline at the same dose. Changes in body weight (A) and changes in dietary intake (B) were measured for 30 days. It was confirmed that dietary intake of the treatment group was regulated to a 60 to 70% level of the control group.
# For a variety of NQO1-activating candidate compounds as listed in Table 1 below, a decrease of NAD(P)H was measured based on the aforesaid experimental method (disclosed in Section 10 hereinbefore: NADH recycling assay). In addition, according to the experimental method given in Example 23, the body weight of ob/ob mice after four weeks was measured.
# In this connection, the decreasing degree of NAD(P)H was expressed as a relative amount of NAD(P)H measured upon administration of the NQO1-activating candidate compound, by taking the amount of NAD(P)H in the absence of the NQO1 activator NAD(P)H to be 100. In addition, the degree of the body weight loss was expressed as a percentage of the body weight of ob/ob mice with administration of the NQO1-activating candidate compound, relative to the body weight of ob/ob mice without administration of the NQO1-activating candidate compound (control) after four weeks.
# [4] = AMP/ATP, NAD+/NADH and NADP+/NADPH ratios in liver after intravenous administration; type: in vivo, mouse; conditions: Lean mice
# [5] = test system: HepG2 cells; assay: mitochondrial membrane potential (TMRE fluorescence) in HepG2 cells; type: cell-based, human; conditions: NQO1-proficient HepG2 cells
# Protocol: For determination of the inner mitochondrial membrane potential (ΔΨm), 20 nM of TMRE (tetramethylrhodamine ethyl ester) as a fluorescent indicator was continuously applied to be loaded on cells. In order to monitor mitochondrial Ca^2+, cells on glass coverslips were loaded with 10 μM Rhod-2 AM via cold loading/warm incubation. In order to monitor cytosolic Ca^2+, cells were co-loaded with 10 μM Fluo-4 AM at 37′C for 30 min. The cells were washed twice with a KB solution, and mounted in a perfusion chamber. Fluorescent imaging was taken using a confocal laser scanning microscope (LSM-510 META, Carl Zeiss) at a magnification of ×200 and ×400, in conjunction with appropriate laser lines and a filter set. Image analysis was carried out using LSM-510 META software (Zeiss). Images for TMRE (red fluorescence), Rhod-2 (red fluorescence) and Fluo-4 (green fluorescence) were obtained using an inverted Zeiss 510META laser-scanning confocal microscope equipped with ×63 numerical aperture, 1.4 oil-immersion planapochromat lens. Green fluorescence and red fluorescence were illuminated with light of 488 nm and 543 nm. Incident light was passed through a 545 nm dichroic mirror and observed via a 500 to 530 nm band-pass (green) filter and a 560 nm long-pass (red) barrier filter.
# However, such effects were not observed in HEK293 cells. […]
smiles,measurement,setting,value
"CC1(C)CCC2=C(O1)c1ccccc1C(=O)C2=O [βL, 2,2-Dimethyl-3,4-dihydro-2H-benzo[h]chromene-5,6-dione]",ACC activation,[1],decreases ACC activation
same,activity of AMPK,"[1]; 10 μM, 30 min",increased
same,glucose tolerance and insulin sensitivity,[2],improvements in glucose tolerance and insulin sensitivity
same,body weight,"[3]; 200 mg/kg daily oral, 56 days",effectively decreases body weight
same,"dietary intake level recovered, relative to control group","[3]; 200 mg/kg daily oral, after around 10 days",70%
same,dietary intake/body weight,"[3]; 200 mg/kg daily oral, at around 10 days",notably decreased
same,Weight reduction In ob/ob mice (4 wk),"[3]; after four weeks, relative to ob/ob mice without administration (control), method of Example 23",−16.8 ± 2.9%
same,changes in the AMP/ATP ratio and NAD+/NADP ratio compared with control,[4],less changes
same,decrease of TMRE fluorescence,[5],about 20%
